This note sets out measurements from patent publication US8242083B2, “Kinase substrates” (PerkinElmer Health Sciences, Inc., priority 2008, dated 2012).

For this assay, the system named is 83 tyrosine kinases. Put plainly: Panel of 83 TR-FRET tyrosine kinase assays. As to conditions: 83 tyrosine kinases tested; conditions of Example 1. Format: biochemical. How it is done:
TR-FRET kinase assays are performed under standardized conditions: various individual kinases are incubated with 50 nM of kinase substrate BRB1 labeled with the TR-FRET acceptor dye ULight (PerkinElmer) and 200 micromolar ATP in 10 μL of kinase assay buffer (50 mM HEPES pH7.5, 10 mM MgCl2, 3 mM MnCl2, 1 mM EGTA, 2 mM DTT and 0.01% Tween-20) for 2 hours at room temperature. Reactions are stopped with EDTA, and anti-phospho-tyrosine antibodies (clone PT66) labeled with the TR-FRET europium chelate donor dye are added to a final concentration of 2 nM in a final volume of 20 μL. The TR-FRET signal emitted at 665 nm is read one hour after the addition of antibodies using a TR-FRET plate reader such as the Envision® Multilabel Plate reader (PerkinElmer). The emitted signal at 665 nm is proportional to the extent of peptide phosphorylation, Control reactions indicative of background are performed excluding ATP from the reaction.
Assay conditions are identical to those used described for FIG. 1.
The BRB2 peptide is tested with 83 tyrosine kinases in assay conditions identical to those used for BRB1 in Example 1. Data obtained with BRB2 indicate that the peptide is phosphorylated by 65 kinases out of 83 (78%), with signal to noise ratio of >3.
(TR-FRET usually uses a lanthanide donor and a delayed reading to cut background.)

For “CGG E AYE AYE AYE AYA EYE ARR (CGGEAYEAYEAYEAYAEYEARR; tyrosine kinase substrate peptide) [BRB2]”, the “Number of kinases out of 83 that phosphorylated the peptide with signal to noise ratio of >3” value was determined as 65 and the “Percentage of 83 kinases that phosphorylated the peptide with signal to noise ratio of >3” value amounted to 78%.
